pIC50: −log10 of the molar value. Read-outs that look alike come from different tables or passages of the source.

Our source for the IC50 values is patent US12116358B2, “Substituted indoles and methods of use thereof” (EPIZYME, INC., priority 2018, dated 2024).

For one assay, the system named is H3K36me3 in A549 cells. As to the kind of experiment: In-Cell Western (ICW) assay of SETD2 inhibitors (A549 assay). The class given is cell-based, human. Particulars: A549 cells, read-out: SETD2 A549. The essentials:
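A549 cells seeded at 4,000/well onto compound and incubated 3 days at 37° C. Methanol-fixed cells stained overnight at 4° C with anti-H3K36me3 (1:1000), then IRDye 800CW secondary with DRAQ5 DNA counterstain. Plates read by Licor imaging at 700 and 800 channels.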

For a further assay, the target named is T1, SETD2(1434-1711) (Homo sapiens, UniProt Q9BYW2).
T1 construct: SETD2 (1434-1711) Assay; catalogue N/A
T1 sequence (Q9BYW2 1434-1711): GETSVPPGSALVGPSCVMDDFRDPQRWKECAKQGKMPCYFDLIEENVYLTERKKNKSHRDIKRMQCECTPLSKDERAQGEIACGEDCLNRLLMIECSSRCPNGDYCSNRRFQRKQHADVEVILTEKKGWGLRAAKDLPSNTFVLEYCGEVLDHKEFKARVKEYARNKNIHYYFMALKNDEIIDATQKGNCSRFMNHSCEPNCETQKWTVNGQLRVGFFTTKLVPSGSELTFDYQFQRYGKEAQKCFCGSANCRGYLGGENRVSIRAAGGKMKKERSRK
In words: SETD2 (1434-1711) assay. The conditions noted are these: read-out: SETD2 (1434-1711). The class given is biochemical.

With `CC(=O)N1CCN([C@@H]2CCC[C@@H](NC(=O)c3cc4c(F)ccc(C)c4[nH]3)C2)CC1C` (stereo partly shown) [compound 907], the pIC50 in the assay on H3K36me3 in A549 cells (Homo sapiens) was 5.77; at SETD2(1434-1711), 6.05.

`Cc1ccc(F)c2cc(C(=O)N[C@@H]3CCC[C@H](N4CCC(N(C)C(=O)CN(C)C)C4)C3)[nH]c12` (stereo partly shown) [compound 908]: the pIC50 is 6.22 with H3K36me3 in A549 cells (Homo sapiens) and 8.40 on SETD2(1434-1711).

Consider `Cc1ccc(F)c2cc(C(=O)N[C@@H]3CCC[C@@H](N4CCC(N(C)C(=O)CN(C)C)C4)C3)[nH]c12` (stereo partly shown) [compound 909], for which the pIC50 was under 5.70 in the assay with H3K36me3 in A549 cells (Homo sapiens) and 5.33 at SETD2(1434-1711).

As for `Cc1ccc(F)c2cc(C(=O)N[C@@H]3CCC[C@H](N4CCC(N5CCCC5=O)C4)C3)[nH]c12` (stereo partly shown) [compound 910], the values for the pIC50 in the assay on H3K36me3 in A549 cells (Homo sapiens) and on SETD2(1434-1711) were 7.00 and 7.52, respectively.

For `Cc1ccc(F)c2cc(C(=O)N[C@@H]3CCC[C@@H](N4CCC(N5CCCC5=O)C4)C3)[nH]c12` (stereo partly shown) [compound 911], the pIC50 is under 5.70 in the assay on H3K36me3 in A549 cells (Homo sapiens) and 6.00 on SETD2(1434-1711).

For the compound `Cc1ccc(F)c2cc(C(=O)N[C@@H]3CCC[C@H](N4CCN(C)CC4=O)C3)[nH]c12` [compound 916], the values for the pIC50 with H3K36me3 in A549 cells (Homo sapiens) and on SETD2(1434-1711) were 5.89 and 6.00, respectively.

With `Cc1ccc(F)c2cc(C(=O)N[C@@H]3CCC[C@@H](N4CCN(C)CC4=O)C3)[nH]c12` [compound 917], the pIC50 was under 5.70 with H3K36me3 in A549 cells (Homo sapiens) and under 5.00 on SETD2(1434-1711).

Turning to `Cc1ccc(F)c2cc(C(=O)N[C@@H]3CCC[C@H](N4CCN(C(=O)C5COC5)CC4)C3)[nH]c12` [compound 918], the pIC50 in the assay with H3K36me3 in A549 cells (Homo sapiens) is 7.00; at SETD2(1434-1711), 7.70.

As to `Cc1ccc(F)c2cc(C(=O)N[C@@H]3CCC[C@@H](N4CCN(C(=O)C5COC5)CC4)C3)[nH]c12` [compound 919], the pIC50 in the assay with H3K36me3 in A549 cells (Homo sapiens) was under 5.70; at SETD2(1434-1711), 6.05.

On to `Cc1ccc(F)c2cc(C(=O)N[C@@H]3CCC[C@H](N4CCN(C5CCOC5)CC4)C3)[nH]c12` (stereo partly shown) [compound 924], for which the pIC50 is 6.22 in the assay with H3K36me3 in A549 cells (Homo sapiens) and 7.00 on SETD2(1434-1711).

Regarding `Cc1ccc(F)c2cc(C(=O)N[C@@H]3CCC[C@@H](N4CCN(C5CCOC5)CC4)C3)[nH]c12` (stereo partly shown) [compound 925], the pIC50 in the assay on H3K36me3 in A549 cells (Homo sapiens) is under 5.70; at SETD2(1434-1711), 5.06.

Turning to `CC(=O)N1C2CCC1CN(C1CCCC(NC(=O)c3cc4c(F)ccc(C)c4[nH]3)C1)C2` (stereo not shown) [compound 926], the pIC50 is 7.00 in the assay on H3K36me3 in A549 cells and 7.70 on SETD2(1434-1711).

As for `CC(=O)N1C2CCC1CN(C1CCCC(NC(=O)c3cc4c(F)ccc(C)c4[nH]3)C1)C2` (stereo not shown) [compound 927], the pIC50 is under 5.70 with H3K36me3 in A549 cells and 5.77 on SETD2(1434-1711).

Turning to `Cc1ccc(F)c2cc(C(=O)N[C@@H]3CCC[C@H](N4CCC5(CC4)CNC(=O)C5)C3)[nH]c12` [compound 928], the results for the pIC50 in the assay with H3K36me3 in A549 cells (Homo sapiens) and at SETD2(1434-1711) were 6.05 and 7.52, respectively.

Take `Cc1ccc(F)c2cc(C(=O)N[C@@H]3CCC[C@@H](N4CCC5(CC4)CNC(=O)C5)C3)[nH]c12` [compound 929]: the figures for the pIC50 in the assay on H3K36me3 in A549 cells (Homo sapiens) and on SETD2(1434-1711) were under 5.70 and 5.77, respectively.

Regarding `CC(=O)N1CCN([C@H]2CCC[C@@H](NC(=O)c3cc4c(F)ccc(C)c4[nH]3)C2)C[C@H]1C` [compound 930], the figures for the pIC50 with H3K36me3 in A549 cells (Homo sapiens) and on SETD2(1434-1711) were 8.00 and 8.40, respectively.

Turning to `CC(=O)N1CCN([C@@H]2CCC[C@@H](NC(=O)c3cc4c(F)ccc(C)c4[nH]3)C2)C[C@H]1C` [compound 931], the pIC50 in the assay with H3K36me3 in A549 cells (Homo sapiens) is under 5.70; at SETD2(1434-1711), 5.96.

With `Cc1ccc(F)c2cc(C(=O)N[C@@H]3CCC[C@@H](N4CCNC(=O)CC4)C3)[nH]c12` [compound 933], the results for the pIC50 in the assay on H3K36me3 in A549 cells (Homo sapiens) and at SETD2(1434-1711) were under 5.70 and 6.15, respectively.

`Cc1ccc(F)c2cc(C(=O)N[C@@H]3CCC[C@H](N4CCC(N(C)C(=O)CO)C4)C3)[nH]c12` (stereo partly shown) [compound 934]: the pIC50 with H3K36me3 in A549 cells (Homo sapiens) was 7.00; on SETD2(1434-1711), 8.00.

For the compound `Cc1ccc(F)c2cc(C(=O)N[C@@H]3CCC[C@@H](N4CCC(N(C)C(=O)CO)C4)C3)[nH]c12` (stereo partly shown) [compound 935], the pIC50 was under 5.70 in the assay on H3K36me3 in A549 cells (Homo sapiens) and 5.72 on SETD2(1434-1711).

As to `CC(=O)N1CC2CC1CN2[C@H]1CCC[C@@H](NC(=O)c2cc3c(F)ccc(C)c3[nH]2)C1` (stereo partly shown) [compound 936], the results for the pIC50 in the assay on H3K36me3 in A549 cells (Homo sapiens) and on SETD2(1434-1711) were 6.30 and 7.00, respectively.

As to `CC(=O)N1CC2CC1CN2C1CCCC(NC(=O)c2cc3c(F)ccc(C)c3[nH]2)C1` (stereo not shown) [compound 937], the results for the pIC50 in the assay on H3K36me3 in A549 cells and on SETD2(1434-1711) were under 5.70 and 5.17, respectively.

`Cc1ccc(F)c2cc(C(=O)N[C@@H]3CCC[C@H](N4CCC5(CCC(=O)N5)CC4)C3)[nH]c12` [compound 938]: the pIC50 in the assay on H3K36me3 in A549 cells (Homo sapiens) was 6.30; at SETD2(1434-1711) it was 7.52.

Turning to `Cc1ccc(F)c2cc(C(=O)N[C@@H]3CCC[C@@H](N4CCC5(CCC(=O)N5)CC4)C3)[nH]c12` [compound 939], the pIC50 in the assay with H3K36me3 in A549 cells (Homo sapiens) is under 5.70; on SETD2(1434-1711), 6.30.

With `Cc1ccc(F)c2cc(C(=O)N[C@@H]3CCC[C@H](N4CCC5(CC4)CNC(=O)N5)C3)[nH]c12` [compound 940], the pIC50 with H3K36me3 in A549 cells (Homo sapiens) was under 5.70; at SETD2(1434-1711), 7.70.

Regarding `Cc1ccc(F)c2cc(C(=O)N[C@@H]3CCC[C@@H](N4CCC5(CC4)CNC(=O)N5)C3)[nH]c12` [compound 941], the pIC50 with H3K36me3 in A549 cells (Homo sapiens) is under 5.70; on SETD2(1434-1711), 5.89.

Turning to `Cc1ccc(F)c2cc(C(=O)NC3CCCC(N4CCC(=O)N(C)CC4)C3)[nH]c12` (stereo not shown) [compound 944], the pIC50 is 7.00 in the assay with H3K36me3 in A549 cells and 7.52 at SETD2(1434-1711).

Consider `Cc1ccc(F)c2cc(C(=O)N[C@@H]3CCC[C@@H](N4CCC(=O)N(C)CC4)C3)[nH]c12` [compound 945], for which the pIC50 in the assay with H3K36me3 in A549 cells was under 5.70; at SETD2(1434-1711) it was 7.00.

As to `Cc1ccc(F)c2cc(C(=O)NC3CCCC(N4CCC(N(C)C(=O)C5COC5)C4)C3)[nH]c12` (stereo not shown) [compound 946], the pIC50 in the assay on H3K36me3 in A549 cells was 7.00; on SETD2(1434-1711), 7.70.

As for `Cc1ccc(F)c2cc(C(=O)NC3CCCC(N4CCC(N(C)C(=O)C5COC5)C4)C3)[nH]c12` (stereo not shown) [compound 947], the pIC50 was under 5.70 with H3K36me3 in A549 cells and 5.26 at SETD2(1434-1711).

As for `CCNC(=O)N1CCN(C2CCCC(NC(=O)c3cc4c(F)ccc(C)c4[nH]3)C2)CC1` (stereo not shown) [compound 948], the pIC50 in the assay with H3K36me3 in A549 cells was 7.00; at SETD2(1434-1711), 8.00.

Take `CCNC(=O)N1CCN(C2CCCC(NC(=O)c3cc4c(F)ccc(C)c4[nH]3)C2)CC1` (stereo not shown) [compound 949]: the results for the pIC50 with H3K36me3 in A549 cells and on SETD2(1434-1711) were under 5.70 and 6.15, respectively.

Turning to `CC(=O)N1CCC12CN(C1CCCC(NC(=O)c3cc4c(F)ccc(C)c4[nH]3)C1)C2` (stereo not shown) [compound 950], the pIC50 in the assay on H3K36me3 in A549 cells was under 5.70; at SETD2(1434-1711) it was 6.40.

For `CC(=O)N1CCC12CN(C1CCCC(NC(=O)c3cc4c(F)ccc(C)c4[nH]3)C1)C2` (stereo not shown) [compound 951], the pIC50 is under 5.70 in the assay with H3K36me3 in A549 cells and 5.15 on SETD2(1434-1711).

On to `CC(=O)N1CC2CCC(C1)N2C1CCCC(NC(=O)c2cc3c(F)ccc(C)c3[nH]2)C1` (stereo not shown) [compound 952], for which the values for the pIC50 in the assay on H3K36me3 in A549 cells and on SETD2(1434-1711) were 6.40 and 7.40, respectively.

Consider `CC(=O)N1CC2CCC(C1)N2[C@@H]1CCC[C@@H](NC(=O)c2cc3c(F)ccc(C)c3[nH]2)C1` [compound 953], for which the values for the pIC50 in the assay with H3K36me3 in A549 cells (Homo sapiens) and at SETD2(1434-1711) were under 5.70 and 5.52, respectively.

Regarding `Cc1ccc(F)c2cc(C(=O)NC3CCCC(c4nnc(CN(C)C)o4)C3)[nH]c12` (stereo not shown) [compound 955], the pIC50 is 6.10 in the assay on H3K36me3 in A549 cells and 6.70 at SETD2(1434-1711).

For `Cc1ccc(F)c2cc(C(=O)NC3CCCC(N4CCNCC4)C3)[nH]c12` (stereo not shown) [compound 956], the figures for the pIC50 in the assay on H3K36me3 in A549 cells and on SETD2(1434-1711) were 6.15 and 7.00, respectively.
